# Data from US5358712A, “Radiopharmaceutical agents for the detection of Alzheimer's disease” (Regents of the University of Minnesota, priority 1993, dated 1994).
# What was measured:
# [1] = system: vesamicol receptor; assay: Blocking experiments: inhibition of radiotracer accumulation in the rat by coadministered compound; format: in vivo, rat (male Wistar); settings: rat, 60 min; for Brain: Blood Ratio / Heart: Blood Ratio / radioactivity in blood / radioactivity in brain / radioactivity in heart / radioactivity in kidney / radioactivity in liver / radioactivity in lung / radioactivity in muscle / radioactivity in spleen: iv
# Outline: (§1)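 Male Wistar rats (n=3/group) got iv radiotracer, alone or coadministered with blocker (e.g. (+)/(−)-HBrPP·HCl 1.3 μmol/kg, vesamicol·HCl 1.1 μmol/kg, or 0.31–0.53 mg/kg in other series). Blood and tissues taken 60 min post-injection to assess radiotracer accumulation.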
# [2] = system: rat brain; assay: Ex vivo autoradiographic studies, regional distribution in the rodent brain; parameters: species or system rat (male Wistar); settings: 3 hours
# Protocol: Four male Wistar rats weighing 300-330 g. were anesthetized with diethyl ether. While under anesthesia two animals each received an intravenous dose of 300 μCi of (-)-4-[^125 I]HIPP in […] of 50% aqueous ethanol. The second pair of animals received an iv dose of (+)-4-[^125I]HIPP (170 μCi) in the same solvent. The animals were sacrificed by decapitation three hours following radiotracer administration. The brains were harvested, embedded in Tissue Tek OCT embedding medium and frozen to -38° C. Twenty-micron thick brain sections were obtained at -15° C. using a Reicheft HistoSTAT cryostat microtome. The sections were dried and opposed to Kodak NMC film for autoradiography accompanied by external standards (^125 I-labelled microscales from Amersham). Images were subsequently digitized based on the linear scale obtained from these standards.
# [3] = Tissue distribution (biodistribution) of radioiodinated compound in the rat; settings: for Brain: Blood Ratio / Heart: Blood Ratio / tissue uptake at 5 min / tissue uptake at 1 h: iv
# Protocol: Four groups of male Wistar rats (with four animals per group) weighing 200-350 g were used in these experiments. Each animal received, while under ether anesthesia, an intravenous injection of the radiotracer (10-20 μCi) dissolved in 0.1 ml of 50% aqueous ethanol. At 5, 30, and 60 and 180 min. post-injection, blood was collected from the anesthetized animals by cardiac puncture, and the animal was immediately sacrificed by cardiectomy. The organs and tissues of interest were harvested, transferred to preweighed tubes and counted in a Beckman gamma counter. The tubes were subsequently reweighed to give the weight of the corresponding tissues. Preweighed tubes containing ^1 -ml samples of a 1:100 dilution of the injection dose were also counted and used as reference for calculating the tissue accumulation of radioactivity. The accumulation of radiotracer was expressed as a percentage of injected dose per gram of tissue.
# [4] = Blocking experiments: inhibition of radiotracer accumulation in the rat by coadministered compound; format: in vivo, rat (male Wistar); settings: rat, iv, rat, iv, 60 min
# Outline: as §1
# [5] = coadministered blocker, listed as (+)-[^125 I]5
# [6] = + (dl)-vesamicol HCl 0.3 (Table 3) or 0.31 mg/kg
smiles,measurement,setting,value
"OC(Cc1ccc([125I])cc1)CN1CCC(c2ccccc2)CC1 (single isomer, unassigned; (+)) [(+)-4-[^125 l]HIPP] [2-Hydroxy-3-(4-iodophenyl)-1-(4-phenylpiperidyl)propane]",reduction of accumulation of radioactivity in the brain,[1]; [5],53%-58%
same,reduction of accumulation of radioactivity in the heart,[1]; [5],74% -76%
same,Brain: Blood Ratio,[1]; + (+)-7 HCl 0.53 mg/kg,3.9
same,Heart: Blood Ratio,[1]; + (+)-7 HCl 0.53 mg/kg,1.8
same,radioactivity in blood,[1]; + (+)-7 HCl 0.53 mg/kg,0.06 % dose/g of tissue
same,radioactivity in brain,[1]; + (+)-7 HCl 0.53 mg/kg,0.32 % dose/g of tissue
same,radioactivity in heart,[1]; + (+)-7 HCl 0.53 mg/kg,0.15 % dose/g of tissue
same,radioactivity in kidney,[1]; + (+)-7 HCl 0.53 mg/kg,0.47 % dose/g of tissue
same,radioactivity in liver,[1]; + (+)-7 HCl 0.53 mg/kg,1.13 % dose/g of tissue
same,radioactivity in lung,[1]; + (+)-7 HCl 0.53 mg/kg,1.29 % dose/g of tissue
same,radioactivity in muscle,[1]; + (+)-7 HCl 0.53 mg/kg,0.08 % dose/g of tissue
same,radioactivity in spleen,[1]; + (+)-7 HCl 0.53 mg/kg,0.71 % dose/g of tissue
same,radioactivity in spleen,[1]; + (-)-7 HCl 0.53 mg/kg,0.57 % dose/g of tissue
same,Brain: Blood Ratio,[1]; + (-)-7 HCl 0.53 mg/kg,4.5
same,Heart: Blood Ratio,[1]; + (-)-7 HCl 0.53 mg/kg,2.0
same,radioactivity in blood,[1]; + (-)-7 HCl 0.53 mg/kg,0.05 % dose/g of tissue
same,radioactivity in brain,[1]; + (-)-7 HCl 0.53 mg/kg,0.32 % dose/g of tissue
same,radioactivity in heart,[1]; + (-)-7 HCl 0.53 mg/kg,0.16 % dose/g of tissue
same,radioactivity in kidney,[1]; + (-)-7 HCl 0.53 mg/kg,0.54 % dose/g of tissue
same,radioactivity in liver,[1]; + (-)-7 HCl 0.53 mg/kg,0.90 % dose/g of tissue
same,radioactivity in lung,[1]; + (-)-7 HCl 0.53 mg/kg,1.51 % dose/g of tissue
same,radioactivity in muscle,[1]; + (-)-7 HCl 0.53 mg/kg,0.09 % dose/g of tissue
same,Brain: Blood Ratio,[1]; [6],9.7
same,Heart: Blood Ratio,[1]; [6],3.8
same,radioactivity in blood,[1]; [6],0.04 % dose/g of tissue
same,radioactivity in brain,[1]; [6],0.36 % dose/g of tissue
same,radioactivity in heart,[1]; [6],0.15 % dose/g of tissue
same,radioactivity in kidney,[1]; [6],0.46 % dose/g of tissue
same,radioactivity in liver,[1]; [6],2.23 % dose/g of tissue
same,radioactivity in lung,[1]; [6],1.11 % dose/g of tissue
same,radioactivity in muscle,[1]; [6],0.08 % dose/g of tissue
same,radioactivity in spleen,[1]; [6],0.68 % dose/g of tissue
same,Brain: Blood Ratio,[1]; radiotracer only (control),28.7
same,Heart: Blood Ratio,[1]; radiotracer only (control),39.8
same,radioactivity in blood,[1]; radiotracer only (control),0.02 % dose/g of tissue
same,radioactivity in brain,[1]; radiotracer only (control),0.76 % dose/g of tissue
same,radioactivity in heart,[1]; radiotracer only (control),0.60 % dose/g of tissue
same,radioactivity in kidney,[1]; radiotracer only (control),1.63 % dose/g of tissue
same,radioactivity in liver,[1]; radiotracer only (control),1.38 % dose/g of tissue
same,radioactivity in lung,[1]; radiotracer only (control),3.46 % dose/g of tissue
same,radioactivity in muscle,[1]; radiotracer only (control),0.13 % dose/g of tissue
same,radioactivity in spleen,[1]; radiotracer only (control),1.10 % dose/g of tissue
same,radioactivity in cerebellar molecular layer relative to granular layer,[2],slightly higher concentration
same,radioactivity in frontal cortex and caudate-putamen,[2],Moderate levels
same,radioactivity in pineal gland and nuclei of fifth and seventh cranial nerves,[2],highest levels
same,radioactivity in the white matter,[2],relatively low
same,tissue distribution profile compared with (-)-[^125 I]5,[3]; rat,similar
same,injected dose found in the brain,"[3]; rat, 5 minutes post injection, listed as (+)-[^125 I]5",2.27 % of the injected dose
same,injected dose found in the heart,"[3]; rat, 5 minutes post-injection, listed as (+)-[^125 I]5",1.23 % of the injected dose
same,decrease of radioactivity in the heart,"[3]; rat, between 5 and 30 minutes",32%
same,concentration of radioactivity in the brain over time,"[3]; rat, duration of the study (3 hours), listed as (+)-[^125 I]5",remained essentially constant
same,Brain: Blood Ratio,"[3]; rat, 5 min",15.2
same,Heart: Blood Ratio,"[3]; rat, 5 min",22.7
same,Brain: Blood Ratio,"[3]; rat, 30 min",32.4
same,Heart: Blood Ratio,"[3]; rat, 30 min",32.7
same,Brain: Blood Ratio,"[3]; rat, 60 min",44.3
same,Heart: Blood Ratio,"[3]; rat, 60 min",40.2
same,Brain: Blood Ratio,"[3]; rat, 180 min",44.8
same,Heart: Blood Ratio,"[3]; rat, 180 min",28.2
same,level of radioactivity in the blood,"[3]; rat, throughout the study",low
same,brain retention (in words),[3]; rodent (and monkey),comparable retention
"OC(CN1CCC(c2ccccc2)CC1)c1ccc([125I])cc1 (single isomer, unassigned; (+)) [(+)-[^125 l]13, 1-(4-Iodophenyl)-2-(4-phenylpiperidinyl)ethanol]",tissue uptake at 1 h,"[4]; blood, radiotracer only (control), read-out: radioactivity in blood",0.05 %ID/g
same,tissue uptake at 1 h,"[4]; brain, + (dl)-vesamicol HCl 0.3 (Table 3) or 0.31 mg/kg, read-out: radioactivity in brain",0.24 %ID/g
same,tissue uptake at 1 h,"[4]; brain, radiotracer only (control), read-out: radioactivity in brain",0.87 %ID/g
same,tissue uptake at 1 h,"[4]; heart, + (dl)-vesamicol HCl 0.3 (Table 3) or 0.31 mg/kg, read-out: radioactivity in heart",0.08 %ID/g
same,tissue uptake at 1 h,"[4]; heart, radiotracer only (control), read-out: radioactivity in heart",0.22 %ID/g
same,tissue uptake at 1 h,"[4]; kidney, + (dl)-vesamicol HCl 0.3 (Table 3) or 0.31 mg/kg, read-out: radioactivity in kidney",0.41 %ID/g
same,tissue uptake at 1 h,"[4]; kidney, radiotracer only (control), read-out: radioactivity in kidney",1.87 %ID/g
same,tissue uptake at 1 h,"[4]; liver, + (dl)-vesamicol HCl 0.3 (Table 3) or 0.31 mg/kg, read-out: radioactivity in liver",2.53 %ID/g
same,tissue uptake at 1 h,"[4]; liver, radiotracer only (control), read-out: radioactivity in liver",1.85 %ID/g
same,tissue uptake at 1 h,"[4]; lung, + (dl)-vesamicol HCl 0.3 (Table 3) or 0.31 mg/kg, read-out: radioactivity in lung",0.42 %ID/g
same,tissue uptake at 1 h,"[4]; lung, radiotracer only (control), read-out: radioactivity in lung",1.01 %ID/g
same,tissue uptake at 1 h,"[4]; muscle, + (dl)-vesamicol HCl 0.3 (Table 3) or 0.31 mg/kg, read-out: radioactivity in muscle",0.06 %ID/g
same,tissue uptake at 1 h,"[4]; muscle, radiotracer only (control), read-out: radioactivity in muscle",0.14 %ID/g
same,tissue uptake at 1 h,"[4]; spleen, + (dl)-vesamicol HCl 0.3 (Table 3) or 0.31 mg/kg, read-out: radioactivity in spleen",0.33 %ID/g
same,tissue uptake at 1 h,"[4]; spleen, radiotracer only (control), read-out: radioactivity in spleen",0.88 %ID/g
same,tissue uptake at 5 min,"[3]; rat, blood, radioactivity in blood, 5 min",0.1 %ID/g
same,tissue uptake at 1 h,"[3]; rat, blood, radioactivity in blood, 60 min",0.03 %ID/g
same,tissue uptake at 5 min,"[3]; rat, brain, radioactivity in brain, 5 min",1.43 %ID/g
same,tissue uptake at 1 h,"[3]; rat, brain, radioactivity in brain, 60 min",1.29 %ID/g
same,tissue uptake at 5 min,"[3]; rat, heart, radioactivity in heart, 5 min",1.34 %ID/g
same,tissue uptake at 1 h,"[3]; rat, heart, radioactivity in heart, 60 min",0.25 %ID/g
same,tissue uptake at 5 min,"[3]; rat, kidney, radioactivity in kidney, 5 min",3.12 %ID/g
same,tissue uptake at 1 h,"[3]; rat, kidney, radioactivity in kidney, 60 min",1.86 %ID/g
same,tissue uptake at 5 min,"[3]; rat, liver, radioactivity in liver, 5 min",1.19 %ID/g
same,tissue uptake at 1 h,"[3]; rat, liver, radioactivity in liver, 60 min",2.18 %ID/g
same,tissue uptake at 5 min,"[3]; rat, lung, radioactivity in lung, 5 min",7.87 %ID/g
same,tissue uptake at 5 min,"[3]; rat, muscle, radioactivity in muscle, 5 min",0.33 %ID/g
same,tissue uptake at 1 h,"[3]; rat, muscle, radioactivity in muscle, 60 min",0.14 %ID/g
same,tissue uptake at 5 min,"[3]; rat, spleen, radioactivity in spleen, 5 min",0.92 %ID/g
same,tissue uptake at 1 h,"[3]; rat, spleen, radioactivity in spleen, 60 min",0.9 %ID/g
